Assay results reported in US20140303105A1, “Primycin and components thereof for use in the treatment or prevention of infections caused by specific pathogens” (PANNONPHARMA GYÓGYSZERGYÁRTÓ ZRT., priority 2011, published 2014).

How the values were obtained:
[1] = tested on: Staphylococcus hominis 7835; conditions: cited from earlier work
[2] = tested on: Staphylococcus epidermidis 7586; conditions: cited from earlier work
[3] = tested on: laboratory strain Listeria monocytogenes; conditions: Uri 1986; cited from earlier work
Escherichia coli B 1218 = conditions: cited from earlier work
[4] = tested on: Corynebacterium spp., Enterobacteriaceae species, Pseudomonas aeruginosa, yeasts and dermatophytes; conditions: Bryskier 2005; cited from earlier work
Staphylococcus capitis = conditions: cited from earlier work
[5] = tested on: Coagulase-negative Staphylococus sp., methicillin susceptible; experiment: Standard microdilution susceptibility test, clinical isolates; format: cell-based; conditions: 10 clinical isolates
Propionibacterium acnes = conditions: cited from earlier work
[6] = tested on: Bacillus spp. and Micrococcus spp.; conditions: Bryskier 2005; cited from earlier work
[7] = tested on: Serotype β Streptococcus 8252; conditions: cited from earlier work
Escherichia coli = conditions: by Bryskier; cited from earlier work
B. subtilis ATCC 6633 = conditions: by Bryskier; cited from earlier work
Micrococcus = conditions: by Bryskier; cited from earlier work
[8] = tested on: erythromycin-resistant staphylococci; conditions: 71 strains; cited from earlier work
Gram-negative species = conditions: Horváth 1979; the patent calls the statement unfounded; cited from earlier work
Enterobacter cloacae = conditions: by Bryskier; cited from earlier work
[9] = tested on: Streptococcus simulans 7866; conditions: cited from earlier work
[10] = tested on: Enterococcus sp., decreased vancomycin susceptibility; experiment: Standard microdilution susceptibility test, clinical isolates; format: cell-based; conditions: 5 clinical isolates
[11] = tested on: Staphylococcus epidermidis; conditions: by Bryskier; cited from earlier work
[12] = tested on: S. aureus and coagulase-negative staphylococci; conditions: Bryskier 2005; cited from earlier work
S. aureus = conditions: by Bryskier; cited from earlier work
[13] = tested on: Streptococcus pneumoniae, penicillin susceptible; experiment: Standard microdilution susceptibility test, clinical isolates; format: cell-based; conditions: for MIC: single isolate
Coryneform(s) = conditions: by Bryskier; cited from earlier work
S. aureus ATCC 25923 = conditions: Uri and Actor 1979; cited from earlier work
[14] = tested on: Streptococcus pneumoniae, penicillin resistant; experiment: Standard microdilution susceptibility test, clinical isolates; format: cell-based
E. casseliflavus = experiment: Microdilution MIC, Enterococcus isolates with van resistance genes; format: cell-based
Protocol: (§1) Identification and characterization of resistance patterns of these bacteria were performed by standard methods.
(§2) When forming the test groups we attached great importance to the increasing incidence of drug-resistant microbes causing therapeutic problems. Most important of them are methicillin-resistant Staphylococcus aureus (MRSA), methicillin-resistant coagulase-negative Staphylococcus spp. (MRCoNS), penicillin-resistant Streptococcus pneumoniae (pneumococcus), vancomycin-resistant Enterococcus spp. (VRE). Pneumococcus isolates represented various serotypes, VRE isolates belonged to various species. Moreover, vancomycin-resistance of VRE isolates was based on different genetic backgrounds. Antibiotic-resistant strains were also represented among international reference strains, for example methicillin-resistant Staphylococcus aureus ATCC 43300 (MRSA), Staphylococcus aureus with decreased vancomycin susceptibility ATCC 700698 and 700699 (vancomycin intermediate Staphylococcus aureus—VISA), mupirocin-resistant Staphylococcus aureus ATCC BAA1708 and vancomycin-resistant Enterococcus faecalis ATCC 51299 (VRE).
(§3) Susceptibility tests were performed according to the standard microdilution method (NCCLS (CLSI) M7-A7).
(§4) The lowest concentration at which no bacterial growth was observed after the incubation period is the Minimal Inhibitory Concentration (MIC). The MIC value is inversely proportional to the antimicrobial efficacy. MIC values of antimicrobial agents can differ by species or even by bacterial strains within species.

E. faecium = experiment: as above; format: cell-based; conditions: resistance gene van B
Protocol: as §1, §2, §3, §4

E. faecalis = experiment: as above; format: cell-based
Protocol: as §1, §2, §3, §4

[15] = tested on: Staphylococcus aureus 7503; conditions: cited from earlier work
[16] = tested on: Enterobacter cloacae B 520; conditions: cited from earlier work
Micrococcus spp. = conditions: cited from earlier work
Streptococcus mitis 5728 = conditions: cited from earlier work
[17] = tested on: enterococci and S. pyogenes; conditions: Bryskier 2005; cited from earlier work
[18] = tested on: Streptococcus viridans sp.; experiment: Standard microdilution susceptibility test, clinical isolates; format: cell-based; conditions: 20 clinical isolates

Which MIC [1] does the source give for Primycin here?
The MIC was 0.39 µg/mL.

And the MIC [2]?
Its MIC is 0.78 µg/mL.

What about the MIC [3] of the same substance?
The MIC was 0.25 µg/mL.

And the MIC (Escherichia coli B 1218)?
Its MIC is 50.0 µg/mL.

What about the efficacy [4] of the same substance?
The efficacy was “ineffective”.

What about the MIC (Staphylococcus capitis) of the same substance?
Its MIC is 0.78 µg/mL.

What about the “MIC 50%” value [5] of the same substance?
The value was 0.03 µg/mL.

What about the “MIC 90%” value [5] of the same substance?
The value was 0.06 µg/mL.

What about the “MIC Range” value [5] of the same substance?
The value was 0.03 to 0.06 µg/mL.

What about the “Ratio of Sensitive/Total” value [5] of the same substance?
The value was 10/10.

And the MIC (Propionibacterium acnes)?
The MIC was under 0.1 µg/mL.

And the efficacy [6]?
The efficacy was “effective”.

And the MIC [7]?
The MIC was 1.56 µg/mL.

And the MIC (Escherichia coli)?
Its MIC is 50 µg/mL.

And the MIC (B. subtilis ATCC 6633)?
Its MIC is 0.39 µg/mL.

What about the MIC (Micrococcus) of the same substance?
Its MIC is 0.78 µg/mL.

And the “share of strains presenting primycin resistance” value [8]?
Its value is 13%.

What about the “MIC versus Gram-positives” value (Gram-negative species) of the same substance?
Its value is “hundred times higher”.

What about the MIC (Enterobacter cloacae) of the same substance?
Its MIC is 50 µg/mL.

What about the MIC [9] of the same substance?
Its MIC is 0.39 µg/mL.

What about the “MIC Range” value [10] of the same substance?
The value was 0.25 to 0.5 µg/mL.

And the “Ratio of Sensitive/Total” value [10]?
Its value is 5/5.

And the MIC [11]?
Its MIC is 0.78 µg/mL.

What about the efficacy [12] of the same substance?
Its efficacy is “effective”.

And the MIC (S. aureus)?
The MIC was 0.39 µg/mL.

What about the “MIC 50%” value ([13]; 10 clinical isolates) of the same substance?
The value was 0.5 µg/mL.

What about the “MIC 90%” value ([13]; 10 clinical isolates) of the same substance?
Its value is 0.5 µg/mL.

And the “MIC Range” value ([13]; 10 clinical isolates)?
Its value is 0.25 to 1 µg/mL.

What about the “Ratio of Sensitive/Total” value ([13]; 10 clinical isolates) of the same substance?
Its value is 10/10.

And the MIC ([13]; serotype 3)?
The MIC was 0.5 µg/mL.

What about the MIC ([13]; serotype 4) of the same substance?
Its MIC is 0.5 µg/mL.

What about the MIC ([13]; serotype 7F) of the same substance?
The MIC was 0.5 µg/mL.

And the MIC ([13]; serotype 8)?
Its MIC is 0.5 µg/mL.

And the MIC ([13]; serotype 9(V))?
Its MIC is 0.5 µg/mL.

What about the MIC ([13]; serotype 11(A)) of the same substance?
The MIC was 0.5 µg/mL.

What about the MIC ([13]; serotype 19F) of the same substance?
The MIC was 0.5 µg/mL.

And the MIC ([13]; serotype 23(F))?
Its MIC is 0.25 µg/mL.

What about the MIC (Coryneform(s)) of the same substance?
The MIC was 50 µg/mL.

What about the “MIC (not inhibited at the highest concentration tested)” value (S. aureus ATCC 25923) of the same substance?
The value was over 2 µg/mL.

And the “MIC 50%” value ([14]; 10 clinical isolates)?
The value was 0.5 µg/mL.

And the “MIC 90%” value ([14]; 10 clinical isolates)?
The value was 1 µg/mL.

What about the “MIC Range” value ([14]; 10 clinical isolates) of the same substance?
The value was 0.5 to 1 µg/mL.

What about the “Ratio of Sensitive/Total” value ([14]; 10 clinical isolates) of the same substance?
Its value is 10/10.

And the MIC ([14]; single isolate, serotype 23(F))?
Its MIC is 0.5 µg/mL.

What about the MIC (E. casseliflavus; resistance gene van C1) of the same substance?
The MIC was 0.5 µg/mL.

And the MIC (E. casseliflavus; resistance gene van C2)?
Its MIC is 0.5 µg/mL.

And the MIC (E. faecium)?
The MIC was 0.25 µg/mL.

What about the MIC (E. faecalis; resistance gene van A) of the same substance?
The MIC was 0.5 µg/mL.

And the MIC (E. faecalis; resistance gene van C1)?
Its MIC is 0.5 µg/mL.

And the MIC [15]?
Its MIC is 0.39 µg/mL.

What about the MIC [16] of the same substance?
Its MIC is 50.0 µg/mL.

And the MIC (Micrococcus spp.)?
The MIC was 0.78 µg/mL.

And the MIC (Streptococcus mitis 5728)?
Its MIC is 50.0 µg/mL.

And the efficacy [17]?
Its efficacy is “moderate efficacy”.

And the “MIC 50%” value [18]?
Its value is 1 µg/mL.

What about the “MIC 90%” value [18] of the same substance?
The value was 1 µg/mL.

What about the “MIC Range” value [18] of the same substance?
Its value is 0.5 to 1 µg/mL.

And the “Ratio of Sensitive/Total” value [18]?
The value was 20/20.
